Reference: US20220142948A1, “COMPOSITIONS AND METHODS FOR MODULATING METABOLIC REGULATORS OF T CELL PATHOGENICITY” (The Broad Institute, Inc., priority 2019, published 2022)
“Also recorded” adds a separate entry of the source.

What was measured:
[1] = test system: MOG35-55 specific T cells; assay: Antigen-specific recall response of draining lymph node cells to MOG35-55 (thymidine incorporation, Legendplex); format: in vivo, mouse
Experimental: FIG. 37A-37I—Targeting ODC1 and SAT1 alleviate EAE. (A) Schematics of the polyamine pathway; (B-D) The effects of chemical inhibition of ODC1 by DFMO on EAE. Wildtype mice were immunized with MOG35-55/CFA to induce experimental autoimmune encephalomyelitis and followed for clinical scoring. DFMO were provided in drinking water from day 0 for 10 days in experimental group. B, Clinical score over time. […] C, Antigen-specific cell proliferation is measured by thymidine incorporation after culturing cells isolated from draining lymph node of mice (d15 post immunization) with increasing dose of MOG35-55 peptide for 3 days. D, Flow cytometric analysis of intracellular Foxp3 expression in T cells isolated from CNS at day 15 post immunization. (E-I) The effects of genetic perturbation of SAT1. E, The effects of SAT1 deficiency on metabolome. Abundance of metabolites in the polyamine pathway were determined by LC/MS based metabolomics. Th17n and Th17p cells were differentiated in vitro from naïve cells isolated from WT or SAT1^−/− mice. (F-I) The effects of SAT1 deficiency on EAE. EAE were induced as in (B) in wildtype and SAT1^fl/flCD4^cre mice. F, Clinical score (left) and histological score (right) showing the number of CNS infiltrates show representative experiment with 5 WT and 8 CKO mice. G-H, Cells were isolated from draining lymph node of mice (d23 post immunization) and co-cultured with increasing dose of MOG35-55 peptide for 3 days. Antigen-specific cell proliferation is measured by thymidine incorporation (G) and antigen-specific cytokine secretion by legendplex (H). I, Flow cytometry analysis of intracellular transcription factor expression in CD4 T cells isolated from CNS day 15 post immunization. Linear regression analysis (b, c, f, g), two-way anova (e) and student t test (d, i) were used for statistical analysis.
FIG. 46A-46J—EGCG exacerbates and DHEA ameliorates Th17-induced EAE in vivo. 2D2 TCR-transgenic Th17 cells were adoptively transferred after differentiation in vitro in the presence of an inhibitor or vehicle as indicated. (A, C, G) Clinical outcome of EAE; (B, D) Histological score based on cell infiltrates in meninges and parenchyma of CNS; (E, F) Draining lymph node (cervical) from respective mice were isolated and pulsed with increasing dose of MOG35-55 peptide for 3 days and (E) subjected to thymidine incorporation assay; or (F) measurement of cytokine secretion by Legendplex and flow cytometry. Concentrations were normalized through division by the respective response to no antigen control (H-I) Independent pathological report of CNS isolated from mice with EAE at end point (d35 for EGCG experiments; d28 for DHEA experiment); Optic nerves were not found in the histologic section from one animal in the EGCG+IL-23 group. (J) Representative histology of spinal cord and spinal nerve roots. […] PC, posterior column; PH, posterior horn. Individual mouse numbers are indicated. […] All are H. & E., 40× objective. Three similar experiments were performed.

[2] = test system: Th17 cells (Th17n, Th17p); assay: T cell differentiation culture and flow cytometry (intracellular cytokine and transcription factor staining, CellTrace proliferation)
Experimental: Naïve CD4+CD44-CD62L+CD25-T cells were sorted using BD FACSAria sorter and activated with plate-bound anti-CD3 (1 μg/ml) and antiCD28 antibodies (2 μg/ml) in the presence of cytokines at a concentration of 5×10^5 cells/ml.
Naïve CD4+CD44-CD62L+CD25− T cells with or without including IL-17A.GFP+ were sorted using BD FACSAria sorter and activated with plate-bound anti-CD3 and antiCD28 antibodies (each 1 μg/ml) in the presence of cytokines at a concentration of 5×10^5 cells/ml. For T cell differentiations the following combinations of cytokines were used: pathogenic Th17 (Th17p): 25 ng/ml rmIL-6, 20 ng/ml rmIL-1b (both Miltenyi Biotec) and 20 ng/ml rmIL-23 (R&D systems); non-pathogenic Th17 (Th17n): 25 ng/ml rmIL-6 and 2 ng/ml of rhTGFb1 (Miltenyi Biotec). For differentiation experiments, cells were harvested at 72 hours and were performed in the presence or absence of 50 μM EGCG (Selleck Chemicals), 50 μM DHEA, 40 μM DCA, 10 μM Shikonin (all Sigma) as indicated.
Proliferation was assessed by staining with CellTrace Violet (Thermo Fisher Scientific) per manufacturer's instructions. All stainings were analyzed on a FACS LSR II (BD Bioscience) and using FlowJo software.

[3] = test system: Th17n, Th17p and iTreg cells; assay: Population (bulk) RNA-seq of in vitro differentiated T cells; format: cell-based, mouse
Experimental: (§1) RNA-seq. For population (bulk) RNA-seq, in vitro differentiated T-cells were sorted for live cells and lysed with RLT Plus buffer and RNA was extracted using the RNeasy Plus Mini Kit (Qiagen). Full-length RNA-seq libraries were prepared as previously described and paired-end sequenced (75 bp×2) with a 150 cycle Nextseq 500 high output V2 kit.
Bulk RNA-Seq and SMART-Seq2 analysis. Applicants aligned single-cell SMART-Seq2 libraries with Bowtie2, quantified TPM gene expression with RSEM, and performed QC as Applicants described in detail in a previous publication^51. This computational pipeline is a massively revised and updated version of the one originally used to analyze these libraries^19. Batch effects and other nuisance factors were normalized with a model chosen empirically with SCONE ^52. Bulk RNA-Seq were processed with a modified variant of the same pipeline. In the absence of UMIs, differentially expressed genes were called through a linear model fitted to TPM values with the limma R package and with a mean-variance trend added to the empirical bayes prior^53,54.
as §1
Bulk RNA libraries from DFMO- or vehicle-treated Th17p, Th17n, or Treg were studied with 3 replicates per condition for a total of 18 libraries as shown in FIG. 36A. Genes that are associated with a Th17 or Treg programs (orange and purple, respectively, in FIG. 36B-C) were determined by differential expression test between bulk RNA libraries of (vehicle-treated) Th17n and Th17p on one side and Treg on the other with BH-adjusted p<0.05 and absolute value of log 2 fold-change of at least 1.5. Genes associated with the Th17p or Th17n program (magenta and green, respectively, in FIG. 40A) were determined by differential expression test between bulk RNA libraries of (vehicle-treated) Th17p vs. Th17n with the same thresholds. The PCA shown in FIG. 36A was computed on the set of 3,414 that were differentially associated with Th17, Treg, Th17p, or Th17n programs by the aforementioned criteria to focus it on the subspace of the transcriptome relevant to Th17 pathogenicity phenotypes.
Applicants aligned single-cell SMART-Seq libraries with Bowtie2, quantified TPM gene expression with RSEM, and performed QC as Applicants described in detail in a previous publication (Fletcher et al., 2017). This computational pipeline is a massively revised and updated version of the one originally used to analyze these libraries (Gaublomme et al., 2015). Batch effects and other nuisance factors were normalized with a model chosen empirically with SCONE (Cole et al., 2019). Bulk RNA-Seq were processed with a modified variant of the same pipeline.
For the Smart-Seq libraries, due the absence of UMIs in the dataset, differentially expressed genes were called through a linear model _tted to TPM values with the limma R package and with a mean-variance trend added to the empirical Bayes prior (Ritchie et al., 2015). For the bulk RNA libraries, differentially expressed genes were called with limma-trend or limma-voom (Law et al., 2014) depending on the variance of library sizes, as recommended in the limma package manual (Smyth, 2019).

[4] = cMAF fl/fl CD4cre Th17 cells vs control
[5] = mice transferred with EGCG-treated Th17n cells

Molecule: NCCC[C@](N)(C(=O)O)C(F)F [DFMO, 2-(difluoromethyl)ornithine]
- antigen-specific recall response / proliferation (thymidine incorporation) ([1]; draining lymph node of DFMO treated EAE animals): decreases H3 incorporation; also recorded: decreases proliferation of immune cells; also recorded: significantly reduced
- IL-17+ cells ([2]; DFMO at 4-5 days only (expansion phase)): no change
- IL-17+ cells ([2]; DFMO at both days 1-3 and days 4-5): decrease
- IL-17+ cells ([2]; DFMO at days 1-3 only (differentiation)): decrease
- IL-17 positive CD4 T cells ([2]; FACS, Th17 condition not stated): decreased
- cell proliferation ([2]; Th17 cultures): less cell proliferation; also recorded: reduced cell proliferation
- frequency of Foxp3+ cells / Foxp3 expression ([2]; Th17n (non-pathogenic) condition): increase; also recorded: increased frequency
- upregulation of Foxp3 by DFMO ([2]; Th17n cells, absence of JMJD3 (JMJD3fl/flCD4cre)): partially abrogated
- Rorgt expression ([2]; Th17p cells): suppressed
- Tbet expression ([2]; Th17p cells): suppressed
- effect of DFMO on Foxp3 upregulation [2, 4]: partially rescued
- effect of DFMO on expression of IL-17 [2, 4]: did not impact
- frequency of IL-17+ cells ([2]; cells that have divided just once): significantly reduced
- FoxP3 CD4 T cells ([2]; condition not stated): increase
- IL-17 expression ([2]; intracellular staining, both Th17n and Th17p cells): suppresses IL-17 expression; also recorded: significantly inhibited
- Rorgt expression ([2]; pathogenic and non-pathogenic Th17 cells): did not consistently alter; also recorded: does not alter
- expression of chromatin modifiers / chromatin associated genes [3]: alters chromatin associated genes; also recorded: significant changes
- genes shared / expressed comparably between Th17 and Treg cells [3]: do not change; also recorded: no significant effect
- transcriptome shift (principal component analysis) ([3]; Th17 and iTreg cells): shift Th17 cells to Treg-like transcriptome; also recorded: shift the cells towards Treg gene expression; also recorded: clearly driving cells towards Treg cells; also recorded: driving Th17 cells towards Treg cell profiles; also recorded: promotes Treg-like transcriptome
- Foxp3 ([3]; Th17 cells): upregulated
- Il17a ([3]; Th17 cells): significantly suppressed
- Il17f ([3]; Th17 cells): significantly suppressed
- Il23r ([3]; Th17 cells): significantly suppressed
- Th17 specific genes / transcriptome ([3]; Th17n and Th17p cells): reducing canonical Th17 genes; also recorded: shift Th17 specific genes down; also recorded: suppressed
- Treg specific genes / transcriptome ([3]; Th17n and Th17p cells): shift Treg specific genes up; also recorded: promoted
- proinflammatory state genes (upregulated in Th17p) ([3]; Th17p cells): downregulation
- regulatory state genes (upregulated in Th17n) ([3]; Th17p cells): significant upregulation

Molecule: epigallocatechin-3-gallate [EGCG]
- antigen-specific T cell proliferation [1, 5]: only a small difference
- secretion of IL-6 in response to antigen [1, 5]: significant increase
- secretion of IL-17F in response to antigen [1, 5]: significant increase
- secretion of IL-17 in response to antigen [1, 5]: significant increase
- secretion of IL-22 in response to antigen [1, 5]: significant increase
- IFNg expression ([2]; Th17n cells): upregulation
- IL-10 ([2]; Th17n cells): suppression
- Tbet expression ([2]; Th17n cells): upregulation
- IL-17 positive CD4 T cells / IL-17 expression ([2]; glycolysis enzyme inhibitors, non-pathogenic or pathogenic Th17 conditions, cells after one division): increase
- CASP1 ([3]; Th17n): up-regulated; also recorded: upregulating
- IKZF3 ([3]; Th17n): downregulated; also recorded: downregulating
- IL7R ([3]; Th17n): up-regulated; also recorded: upregulating
- IL22 ([3]; Th17n): up-regulated; also recorded: upregulating
- pro-pathogenic transcriptional program / module ([3]; Th17n cells): promotes the pro-pathogenic module; also recorded: clearly strengthened
- pro-regulatory module ([3]; Th17n cells): suppresses the pro-regulatory module
- position on PC1 (pathogenicity phenotype) ([3]; bulk RNA-Seq of d1 Th17n and Th17p cells): toward a more pathogenic one; also recorded: shifted cell profiles towards a more pathogenic state
